Data as given in patent US20050009789A1, “Cyclooxygenase inhibition with nitroxyl” (The Government of the USA as represented by the Secretary …, priority 2003, published 2005).
Values joined by “and” are separate entries in the source; they are usually repeats but may differ in a detail not shown here. Identical values can stand only once. One block for each molecule: values may come before it.

Experiments:
COX-2 = target: T1, COX-2 (Ovis aries, UniProt P79208); test: COX-2 inhibition, prostaglandin (PGF2α) enzyme immunoassay; type: biochemical
T1 construct: purchased Cayman Chemical #560101
T1 sequence (P79208 17-603): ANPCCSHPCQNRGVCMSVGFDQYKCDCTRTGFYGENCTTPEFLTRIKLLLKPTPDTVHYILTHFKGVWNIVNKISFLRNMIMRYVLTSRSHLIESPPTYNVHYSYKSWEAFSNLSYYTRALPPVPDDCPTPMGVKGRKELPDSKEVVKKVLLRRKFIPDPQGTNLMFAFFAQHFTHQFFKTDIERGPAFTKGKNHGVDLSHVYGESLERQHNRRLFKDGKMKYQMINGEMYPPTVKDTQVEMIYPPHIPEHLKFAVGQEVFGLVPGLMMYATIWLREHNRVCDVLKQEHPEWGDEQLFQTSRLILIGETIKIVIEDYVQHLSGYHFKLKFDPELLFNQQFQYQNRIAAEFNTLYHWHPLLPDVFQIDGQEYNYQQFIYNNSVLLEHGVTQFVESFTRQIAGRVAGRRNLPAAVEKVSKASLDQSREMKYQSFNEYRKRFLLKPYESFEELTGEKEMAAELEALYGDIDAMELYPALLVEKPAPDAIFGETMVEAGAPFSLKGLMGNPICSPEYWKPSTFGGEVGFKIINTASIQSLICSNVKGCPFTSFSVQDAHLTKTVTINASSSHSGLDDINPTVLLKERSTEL
Description: (§1) In some cases, screening in the latter method (measuring prostaglandin production) is accomplished using an enzyme immunoassay (EIA) where COX systems include COX-1 or COX-2, an EIA reaction buffer, Heme, and either a control solution, such as NaOH, for control systems or inhibitor solutions of the nitroxyl donor in NaOH having a range of progressively increasing concentrations of the nitroxyl-donating compound. These systems are reacted with arachidonic acid for a period typically of about five to ten minutes. The COX reactions are stopped in each system, for example, by the addition of hydrochloric acid (HCl).
(§2) The relative amounts prostaglandins, such as PGF2α, in each system are measured with an EIA kit. The EIA measures the amounts of prostaglandins in the systems based on binding to an assay antibody. Binding is determined by absorbance, for example, absorbance at 405 nm, with a plate reader, such as a Perkin Elmer plate reader. High binding results in low absorbance indicating low inhibition, while low binding results in high absorbance indicating high inhibition.
(§3) Once the inhibitor and control systems are prepared they are diluted in the EIA buffer at various dilution ratios, such as 1:1000, 1:2000, and 1:4000 and added to wells of the plate. The plate also contains prostaglandin (PG) standard systems, non-specific binding (NSB) systems, background COX systems, and zero binding (B0) systems, which are used to calibrate the EIA. PG standard systems are prepared at various progressively increasing concentrations of PG, for example 15.6, 31.3, 62.5, 125, 250, 500, 1000, and 2000 PG/mL. Background COX systems contain either boiled COX-1 or COX-2 diluted in EIA reaction buffer. NSB, and B0 systems include only the EIA buffer. Prostaglandin screening acetylcholinase tracer (reconstituted in the EIA buffer) is added to each system. Prostaglandin screening antiserum (reconstituted in the EIA buffer) is added to each system other than the NSB system. Typically, the plate is incubated from several hours to a day, such as from 4 to 24 hours at room temperature (about 22° C.). Ellman's reagent is added to each system in each well and the plate is agitated, such as on an orbital shaker, and protected from light, for example by covering with aluminum foil, for about an hour. The plate is then read on a plate reader, such as a Perkin Elmer plate reader.
(§4) An average value for the absorbance of the NSB systems is determined and this absorbance is used to correct the reading of other systems for NSB (by subtracting the average NSB absorbance). An average value for the absorbance of background COX also is determined and absorbance is later used to correct other systems for background COX levels.
(§5) An average value for B0 is obtained and NSB corrected. Average values for absorbance of each PG standard system are obtained and NSB corrected. The percentage of prostanoid binding is determined by dividing the average NSB corrected absorbance (binding (B)) for each PG standard system by the average NSB corrected absorbance for B0 systems (percentage equals B/B0*100). A standard curve is prepared with % B/B0 on the y axis and the prostaglandin concentration (PG/mL) on the x axis. Then the average % B/B0 for the background, control, and inhibitor systems are determined for each concentration tested. The PG concentration for each of these systems is determined by finding the point on the standard curve that corresponds to the determined % B/B0, determining the corresponding PG concentration on the x axis, and multiplying this concentration by the dilution factor used to prepare the system. To correct for background COX the PG concentration of the background COX-1 or COX-2 systems are subtracted from the COX-1 and COX-2 inhibitor and control systems, respectively. The percentage of inhibition is determined dividing the PG concentration for inhibitor systems by the PG concentration for control systems and multiplying by 100. […]

Nitroxyl donation pH = type: physicochemical
Description: “Nitroxyl donation pH” is the pH at which and above which a nitroxyl-donating compounds donates nitroxyl.
Further, compounds are easily tested for nitroxyl donation with routine experiments. Although it is impractical to directly measure whether nitroxyl is donated, several tests are accepted for determining whether a compound donates nitroxyl. For example, the compound of interest can be placed in solution, for example in water, in a sealed container. After sufficient time for disassociation has elapsed, such as from several minutes to several hours, the headspace gas is withdrawn and analyzed to determine its composition, such as by gas chromatography and/or mass spectroscopy. […] Nitroxyl donation also can be detected by exposing the target donor to metmyoglobin (Mb^3+). Nitroxyl reacts with Mb^3+ to form an Mb^2+—NO complex, which can be detected by changes in the ultraviolet/visible spectrum or by Electron Paramagnetic Resonance (EPR). […]
Testing for nitroxyl donation in some cases is performed at a range of pHs to determine the nitroxyl donation pH of the nitroxyl-donating compound. […] After the lowest pH at which nitroxyl donation occurs in a first set of tests is found, additional tests can be performed with narrower ranges of pH around the first determined nitroxyl donation pH to obtain a more specific nitroxyl donation pH. […]

COX-1 = target: T2, COX-1 (Ovis aries, UniProt P05979); test: COX-1 inhibition, prostaglandin (PGF2α) enzyme immunoassay; type: biochemical
T2 construct: purchased Cayman Chemical #560101
T2 sequence (P05979 25-600): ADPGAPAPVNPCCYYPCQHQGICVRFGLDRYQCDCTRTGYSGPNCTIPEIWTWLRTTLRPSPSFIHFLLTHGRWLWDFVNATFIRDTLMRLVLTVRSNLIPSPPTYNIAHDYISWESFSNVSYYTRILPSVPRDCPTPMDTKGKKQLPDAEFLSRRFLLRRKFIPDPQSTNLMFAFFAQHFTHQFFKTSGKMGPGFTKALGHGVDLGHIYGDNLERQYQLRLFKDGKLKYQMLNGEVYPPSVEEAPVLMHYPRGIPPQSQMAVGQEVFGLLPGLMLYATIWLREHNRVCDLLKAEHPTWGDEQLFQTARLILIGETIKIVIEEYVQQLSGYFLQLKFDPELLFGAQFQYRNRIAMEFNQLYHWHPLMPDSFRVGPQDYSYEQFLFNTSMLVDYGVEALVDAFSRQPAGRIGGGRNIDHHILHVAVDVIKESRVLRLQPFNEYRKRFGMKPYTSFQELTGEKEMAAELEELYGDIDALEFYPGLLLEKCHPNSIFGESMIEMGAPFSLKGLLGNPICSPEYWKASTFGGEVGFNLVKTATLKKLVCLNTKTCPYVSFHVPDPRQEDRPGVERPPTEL
Description: as §1, §2, §3, §4, §5

[1] = Example 3, nitroxyl donor concentration 25 μM
[2] = Example 3, nitroxyl donor concentration 50 μM
[3] = Example 3, nitroxyl donor concentration 75 μM
[4] = Example 3, nitroxyl donor concentration 100 μM
[5] = Example 3, nitroxyl donor concentration 1000 μM
[6] = Example 1, Angeli's salt concentration 0.001 μM, 1:2000 dilution
[7] = Example 1, Angeli's salt concentration 1.0 μM, 1:2000 dilution
[8] = Example 1, Angeli's salt concentration 10.0 μM, 1:2000 dilution
[9] = Example 1, Angeli's salt concentration 500.0 μM, 1:2000 dilution
[10] = Example 2, Angeli's salt concentration 0.100 μM, data below about 50 μM called unreliable
[11] = Example 2, Angeli's salt concentration 100.0 μM
[12] = Example 2, Angeli's salt concentration 500.0 μM
[13] = Example 2, Angeli's salt concentration 1000.0 μM

Percentage COX-2 inhibition (COX-2; [1]): 6.7%
Percentage COX-2 inhibition (COX-2; [2]): 59.5%
Percentage COX-2 inhibition (COX-2; [3]): 46.4%
Percentage COX-2 inhibition (COX-2; [4]): 62.2%
Percentage COX-2 inhibition (COX-2; [5]): 86.8%
nitroxyl donation pH (pH at which and above which nitroxyl is donated) (Nitroxyl donation pH): about 5.5
Compound: CC(C)N[N+]([O-])=N[O-].[Na+] [IPA/NO, Na(CH3)2C(H)N(H)N(O)NO]
COX-2 inhibition, overall trend compared to Angeli's salt (COX-2; Example 3, 25 to 1000 μM): more effective inhibitor of COX-2 than Angeli's salt

IC50 (COX-1; Example 1, read from FIG. 1): ~600 µM
Percentage COX-1 Inhibition (COX-1; [6]): 0.0%
Percentage COX-1 Inhibition (COX-1; [7]): 0.0%
Percentage COX-1 Inhibition (COX-1; [8]): 0.0%
Percentage COX-1 Inhibition (COX-1; Example 1, Angeli's salt concentration 100.0 μM, 1:2000 dilution): 18.3%
Percentage COX-1 Inhibition (COX-1; [9]): 40.2%
Percentage COX-1 Inhibition (COX-1; Example 1, Angeli's salt concentration 1000.0 μM, 1:2000 dilution): 95.4%
COX-1 activity inhibited (COX-1; Example 1, concentrations from about 50 μM to about 100 μM): ≤ 19%
IC50 (COX-1; Example 2, reasonable estimate): 200 to 250 µM
Percentage COX-1 Inhibition (COX-1; Example 2, Angeli's salt concentration 0.001 μM, data below about 50 μM called unreliable): 97.5%
Percentage COX-1 Inhibition (COX-1; [10]): 24.7%
Percentage COX-1 Inhibition (COX-1; Example 2, Angeli's salt concentration 1.0 μM, data below about 50 μM called unreliable): 57.5%
Percentage COX-1 Inhibition (COX-1; Example 2, Angeli's salt concentration 50.0 μM): 16.4%
Percentage COX-1 Inhibition (COX-1; [11]): 45.7%
Percentage COX-1 Inhibition (COX-1; [12]): 62.5%
Percentage COX-1 Inhibition (COX-1; [13]): 68.6%
COX-1/COX-2 IC50 ratio (COX-2; Example 1): about 0.08
IC50 (COX-2; Example 1, read from FIG. 1): ~50 µM
Percentage COX-2 inhibition (COX-2; [6]): 0.0%
Percentage COX-2 inhibition (COX-2; [7]): 34.6%
Percentage COX-2 inhibition (COX-2; [8]): 28.8%
Percentage COX-2 inhibition (COX-2; Example 1, Angeli's salt concentration 100.0 μM, 1:2000 dilution, 100 µM): 100% and 99.2%
Percentage COX-2 inhibition (COX-2; [9]): 86.4%
IC50 (COX-2; Example 2, reasonable estimate): ~50 µM
Percentage COX-2 inhibition (COX-2; [10]): 98.9%
Percentage COX-2 inhibition (COX-2; [11]): 98%
Percentage COX-2 inhibition (COX-2; [12]): 105.7%
Percentage COX-2 inhibition (COX-2; [13]): 106%
Percentage COX-2 inhibition (COX-2; [1]): 5.4%
Percentage COX-2 inhibition (COX-2; [2]): 13.7%
Percentage COX-2 inhibition (COX-2; [3]): 49.2%
Percentage COX-2 inhibition (COX-2; [4]): 59.9%
Percentage COX-2 inhibition (COX-2; [5]): 60.4%
COX-2/COX-1 IC50 ratio (COX-2; one particular example (detailed description)): about 0.08
nitroxyl donation pH (pH at which and above which nitroxyl is donated) (Nitroxyl donation pH): about 3
Compound: [Na+].[Na+].[O-][N+]([O-])=NO [Angeli's salt, Na2ON(O)NO]
